Laboratory results taken from patent US11246961B2, “Engineered scaffolds for vascularized tissue repair” (The Regents of the University of California, priority 2016, dated 2022).

Experiments:
integrin αvβ3 = target: T1, integrin αvβ3 (Homo sapiens, UniProt P05106+P06756); assay: flow cytometry ligand-cell binding, αvβ3-K562 cells; details: K562 cells highly expressing integrin αvβ3
T1 construct: expressed in transfected cells; host or cells: K562 myeloid leukemia cells (αvβ3-K562), provided by Dr. Yoshikazu Takada
Experimental: FIG. 10 presents flow cytometry data from an assay of binding affinity of LXW7 and GRGD (SEQ ID NO: 1) to different cell types. Tests included EPCs/ECs from different sources, including HECFCs (A), HCAECs (B), HMVECs (C), and THP-1 monocytes (D), Platelets (E), as well as K562 cells engineered to highly express αvβ3 (αvβ3-K562, F), and αIIbβ3 (αIIbβ3-K562, G). Cells were incubated with the LXW7-bio, GRGD-bio (SEQ ID NO: 1), or D-Biotin peptide and subsequently incubated with streptavidin-phycoerythrin. Flow cytometry analysis was performed to determine the binding affinity of the ligands. Samples treated with D-biotin were used as negative controls.
Human coronary artery endothelial cells (HCAECs) were purchased from ATCC. Human cardiac microvascular endothelial cells (HMVECs) were purchased from Lonza. THP-1 monocytes were obtained from Dr. Pamela Lein (University of California, Davis). […]
LXW7-bio (1 μM) was incubated with 3×10^5 HECFCs, HCAECs, HMVECs, αvβ3-K562 and αIIbβ3-K562 cells and THP-1 monocytes and 1×10^8 platelets in binding buffer (HEPES containing 10% FBS) on ice for 30 minutes. […] Samples were analyzed on a BD Fortessa LSR Cell Analyzer and further data analysis and gating were performed using FlowJo software (Treestar, Inc.).

VEGFR2 (Tyr1175) = assay: Western-blot analysis, phosphorylation of VEGFR2; assay type: cell-based, human; details: LXW7 treated surface, 96 hours, vs D-biotin
Experimental: The 100-mm dishes from Example 2 were treated with Avidin followed by LXW7-bio or D-biotin as described in Example 5. 8×10^5 HCAECs were seeded per dish and cultured in EGM-2 media for 4 days. Cells were lysed using Extraction Kit (Thermo Fisher Scientific) and protein concentrations were determined using BCA Protein Assay (Thermo Fisher Scientific). Fifteen μg of each sample were loaded and separated using a 4-12% Bis-Tris NuPAGE gel (Thermo Fisher Scientific) and transferred to a nitrocellulose membrane. The membrane was blocked in 5% BSA in TBST (Tris-buffered saline with 0.5% Tween-20), and subsequently incubated with primary antibodies anti-VEGF Receptor 2, anti-Phospho-VEGF Receptor 2, anti-p44/42 MAPK (Erk1/2) and anti-Phospho-p44/42 MAPK (Erk1/2) (Thr202/Tyr204), all purchased from Cell Signaling Technologies, in 1% BSA overnight at 4° C. After washing three times with TBST, the membranes were incubated with respective horseradish peroxidase-conjugated secondary antibodies in 1% non-fat dry milk in TBST (BioRad) for 1 hour at room temperature. After washing, the protein bands were visualized using West Dura Substrate (Thermo Fisher Scientific) and quantified using Image J software.

platelets = platelets attachment assay on ligand treated culture surfaces; assay type: cell-based; details: 16 hours
Text: Ligands LXW7, LXY30, and LLP2A were synthesized as in U.S. Pat. No. 9,073,974. Biotinylated LXW7 (LXW7-bio) and biotinylated GRGD (GRGD-bio) (SEQ ID NO: 1) were synthesized using established solid phase peptide synthesis protocols (Xiao et al. (2010) Mol Cancer Therapeutics 9:2714). Peptide-bio was designed to have biotin attached to the side chain of Lys, with two hydrophilic linkers between peptide and Lys (biotin). To modify culture surface with ligands, target culture wells in a 24-well plate were coated with 500 μL of 20 μg/mL Avidin (Thermo Fisher Scientific), and incubated for 1 hour at 37° C. Avidin coated wells were rinsed three times with DPBS and were treated with 500 μL molar equivalents (2 μM) of D-biotin (Thermo Fisher Scientific), LXW7-bio, or GRGD-bio (SEQ ID NO: 1). After 1 hour, the wells were washed three times with DPBS and blocked with 1% bovine serum albumin (BSA; Thermo Fisher Scientific) for 1 hour. After the wells were rinsed three times with DPBS, for cell attachment assay, 5×10^4 HCAECs and THP-1 monocytes suspended in the respective maintenance medium were added to the wells and incubated for 10 minutes or 16 hours at 37° C., 5% CO2, respectively. […] Five images were randomly taken from each sample and quantification of images was performed using the Image J software (NIH).

HCAECs = assay: MTS assay of EC proliferation on LXW7; assay type: cell-based, human; details: vs D-biotin treated surface; up to 5 days
Experimental: The 96-well plates from Example 3 were treated with 1 μM Avidin solution for 1 hour at room temperature. Avidin coated wells were rinsed three times with DPBS and treated with LXW7-bio (1 μM), with D-biotin (1 μM) serving as the control. After 1 hour, the wells were washed three times with DPBS and blocked with 1% BSA for 1 hour. 3×10^3 viable HCAECs were seeded per well and cultured in EGM-2 media for 5 days. MTS assay was performed at each day as per the manufacturer instructions (Interchim) and analyzed on SpectraMax-3 plate reader (Molecular Devices).

VEGFR-2 = assay: mRNA level of VEGFR-2 on EPCs; assay type: cell-based; details: EPCs treated with LXW7
Experimental: FIG. 15 presents graphs of mRNA levels of VEGFR-2 (A) and EGFR (B) on EPCs after treating with different concentrations of LXW7 for 48 h. *P<0.05 vs. Control, #P<0.05 vs. 25 nM (n=10 per group).

T1 sequence (P06756 31-889 limits assumed): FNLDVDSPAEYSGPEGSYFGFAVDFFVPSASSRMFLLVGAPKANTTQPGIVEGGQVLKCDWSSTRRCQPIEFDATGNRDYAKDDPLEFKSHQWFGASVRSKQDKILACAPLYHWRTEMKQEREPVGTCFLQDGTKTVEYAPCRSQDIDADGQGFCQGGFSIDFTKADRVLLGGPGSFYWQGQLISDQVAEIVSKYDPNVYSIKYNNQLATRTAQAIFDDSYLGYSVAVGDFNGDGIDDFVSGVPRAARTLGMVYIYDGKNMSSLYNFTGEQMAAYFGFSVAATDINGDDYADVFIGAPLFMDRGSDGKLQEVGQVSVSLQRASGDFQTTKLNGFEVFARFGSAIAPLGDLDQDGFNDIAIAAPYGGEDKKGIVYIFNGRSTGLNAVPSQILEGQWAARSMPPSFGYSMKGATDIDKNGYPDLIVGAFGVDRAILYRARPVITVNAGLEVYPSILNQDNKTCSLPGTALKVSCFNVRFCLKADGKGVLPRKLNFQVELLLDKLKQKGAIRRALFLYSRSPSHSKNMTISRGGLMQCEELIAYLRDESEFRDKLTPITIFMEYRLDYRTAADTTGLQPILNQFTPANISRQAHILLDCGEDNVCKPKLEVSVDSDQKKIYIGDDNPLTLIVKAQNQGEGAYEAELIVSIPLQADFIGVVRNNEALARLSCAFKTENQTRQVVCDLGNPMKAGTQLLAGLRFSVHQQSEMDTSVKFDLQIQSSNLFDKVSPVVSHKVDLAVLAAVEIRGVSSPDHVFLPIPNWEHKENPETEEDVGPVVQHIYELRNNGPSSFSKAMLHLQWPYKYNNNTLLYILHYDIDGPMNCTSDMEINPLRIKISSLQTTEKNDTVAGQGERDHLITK
T1 sequence (P06756 891-1048 partner limits assumed): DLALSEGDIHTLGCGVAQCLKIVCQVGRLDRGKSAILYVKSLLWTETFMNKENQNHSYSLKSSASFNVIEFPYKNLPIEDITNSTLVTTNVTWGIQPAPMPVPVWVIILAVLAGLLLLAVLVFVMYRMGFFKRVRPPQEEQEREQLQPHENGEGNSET
T1 sequence (P05106 27-788): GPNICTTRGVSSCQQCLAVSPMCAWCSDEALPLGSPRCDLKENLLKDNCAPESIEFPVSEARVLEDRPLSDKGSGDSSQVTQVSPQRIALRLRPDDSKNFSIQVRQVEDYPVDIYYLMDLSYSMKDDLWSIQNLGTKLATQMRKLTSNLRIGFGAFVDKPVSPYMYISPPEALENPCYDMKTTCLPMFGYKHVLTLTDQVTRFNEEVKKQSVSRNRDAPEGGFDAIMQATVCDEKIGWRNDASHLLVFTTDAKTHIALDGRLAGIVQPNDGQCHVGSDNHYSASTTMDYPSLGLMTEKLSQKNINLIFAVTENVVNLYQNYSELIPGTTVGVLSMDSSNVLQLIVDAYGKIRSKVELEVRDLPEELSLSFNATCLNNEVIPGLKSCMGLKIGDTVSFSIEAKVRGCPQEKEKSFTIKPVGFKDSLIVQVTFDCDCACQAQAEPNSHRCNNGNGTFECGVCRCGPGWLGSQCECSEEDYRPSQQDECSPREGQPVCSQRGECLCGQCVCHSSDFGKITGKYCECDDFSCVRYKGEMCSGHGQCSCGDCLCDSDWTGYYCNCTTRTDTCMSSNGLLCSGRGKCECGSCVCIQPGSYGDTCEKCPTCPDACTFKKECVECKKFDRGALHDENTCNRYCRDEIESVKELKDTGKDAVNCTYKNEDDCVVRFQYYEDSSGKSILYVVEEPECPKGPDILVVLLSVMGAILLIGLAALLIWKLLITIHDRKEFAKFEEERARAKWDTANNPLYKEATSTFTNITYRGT

binding affinity to αvβ3-K562 cells by flow cytometry (integrin αvβ3): higher binding affinity than GRGD
Substance: cGRGDdvc [LXW7]
phosphorylation of VEGFR2 (Tyr1175) in ECs (VEGFR2 (Tyr1175)): significantly increased
platelet adhesion on ligand treated surface (platelets): limited platelet adhesion
EC proliferation on LXW7 treated surface (MTS) (HCAECs): significantly promoted EC proliferation after 48 hours in culture
VEGFR2 mRNA level (VEGFR-2): increases in VEGFR2 and EGFR mRNA levels were found to be dependent on treatment time
